Results as given in publication PMC6340402 (Chemical Science, 2018).

System: HeLa cells
Assay: Cellular uptake in HeLa cells by confocal laser scanning microscopy
Assay type: cell-based
Settings: 30 minutes, 37 °C, serum-containing medium, Fig. 3

FITC-Ahx-Arg-Arg-Arg-Arg-tetrazine-BCN-Arg-Arg-Arg-Arg-NH2 [R4-b-R4]
cellular uptake (CLSM, FITC fluorescence) (all concentrations (5, 10, 15 and 20 μM)): taken up at all concentrations | mechanism of uptake at the higher concentrations (CLSM) (higher concentrations): strong cytosolic uptake
